Laboratory results published in patent US20050036994A1, “Compounds and methods for downregulating the effects of TGF-beta” (priority 2003, published 2005).

B1: purchased AHSG: purchased AHSG (Sigma) partially purified from human plasma (protein, UniProt P02765 19-300; P02765 341-367, looked up)
Alpha-2-HS-glycoprotein chain … 1: APHGPGLIYRQPNCDDPETEEAALVAIDYINQNLPWGYKHTLNQIDEVKVWPQQPSGELFEIEIDTLETTCHVLDPTPVARCSVRQLKEHAVEGDCDFQLLKLDGKFSVVYAKCDSSPDSAEDVRKVCQDCPLLAPLNDTRVVHAAKAALAAFNAQNNGSNFQLEEISRAQLVPLPPSTYVEFTVSGTDCVAKEATEAAKCNLLAEKQYGFCKATLSEKLGGAEVAVTCMVFQTQPVSSQPQPEGANEAVPTPVVDPDAPPSPPLGAPGLPPAGSPPDSHVL
Alpha-2-HS-glycoprotein chain … 2: TVVQPSVGAAAGPVVPPCPGRIRHFKV

Key:
[1] = target: T1, pericellular cathepsin B (Mus musculus, UniProt P10605); test: Pericellular cathepsin B assay (z-Arg-Arg-AMC) on transfected LLC cells; format: biochemical; settings: 25 nM inhibitor added to the assay
T1 construct: These cells normally express cathepsin B; endogenous in cells; host or cells: Lewis lung carcinoma (LLC) cells, intact cell suspension, transfected with AHSG or empty vectors (not with cathepsin B)
T1 sequence (P10605 80-333): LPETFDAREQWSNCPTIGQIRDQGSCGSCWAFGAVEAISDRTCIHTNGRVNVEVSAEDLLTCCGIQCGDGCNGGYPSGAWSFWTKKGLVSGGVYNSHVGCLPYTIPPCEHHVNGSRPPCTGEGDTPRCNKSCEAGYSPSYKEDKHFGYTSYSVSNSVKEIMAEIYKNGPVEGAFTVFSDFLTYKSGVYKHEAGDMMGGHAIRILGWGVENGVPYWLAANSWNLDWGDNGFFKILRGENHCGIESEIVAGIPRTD
From the text: In this example we used the fluorogenic substrate called z-Arg-Arg-AMC. […] The ability of this substrate to stay outside the cell allowed us to measure the enzymatic activity of pericellular cathepsin B (Hulkower, K. I. et al Eur J Biochem 267:4165 (2000). Many human and mouse cancer cell lines have cathepsin B activity on the cell surface.
To measure the effect of AHSG on the activity of cathepsin B, we expressed AHSG using expression vectors, pAAV-AHSG or pCDNA-AHSG that were used to transfect Lewis lung carcinoma (LLC) cells. These cells normally express cathepsin B (Hulkower, K. I. et al Eur J Biochem 267:4165 (2000)). Thus the addition of the substrate to the cells transfected with a non-specific vector lead to lysis of the peptide and the resulting level of cathepsin B activity was arbitrarily set at 100 (FIG. 7, left column). Cathepsin B activity following transfection with pAAV-AHSG was roughly 25% lower than that in control cells (FIG. 7, second column). Next 25 nM of a known inhibitor of cathepsin B, CA 074 was added to the assay. […] Despite the low transfection efficiency of LLC cells that ranged from 10 to 20% as measured using in situ staining of β-galactosidase activity, the observed reduction of the cathepsin B in the presence of AHSG supports the present invention that expression of AHSG suppresses cathepsin B activity on the cell surface. […]

[2] = system: pericellular cathepsin B; test: Pericellular cathepsin B assay with partially purified AHSG or concentrated spent media of infected HEK293 cells (FIG. 8); format: biochemical; settings: for inhibition of pericellular cathepsin B activity: FIG. 8
Protocol: 50 μl of the cell suspension was added to a black walled 96 well plate (ThermoLabsystems, Part No. 8220, Vantaa, Finland). The appropriate concentration of inhibitors of cathepsin B, purified AHSG or concentrated media were diluted in 5 μl of PAB and the added to the cell suspension in each of the 96 wells. The plate was pre-incubated at 40° C. for 30 min. The reaction was started by adding 50 μl of a 200 μM solution of z-Arg-Arg-AMC (EMD Biosciences Inc, Darmstadt, Germany), a fluorogenic peptide that is lysed by cathhepsin B. This substrate was dissolved in PAB and pre-incubated at 40° C. prior to use. Hydrolytic activity of cathepsin B produces free AMC from the substrate peptide resulting in increased fluorescence. The intensity of fluorescence was measured using ThermoLabsystems Fluoroskan microplate reader with a 355 nm excitation filter and a 420 nm emission filter. The stock solution of z-Arg-Arg-AMC was dissolved in DMSO at the concentration of 10 mM and stored in −80° C. The Cathepsin B specific inhibitors CA-074 and Ac-LVK-CHO (EMD Biosciences Inc., Darmstadt, Germany) were dissolved in H2O at the concentration of 10 mM, aliquoted and stored in −80° C.
HEK 293 cells were subcultured at the cell density of 40% confluence in the morning of the study. […] The next day culture medium was replaced with fresh D-MEM supplemented with 5% FCS and culture for 2 additional days. The culture medium was passed through a filter with the pore size of 0.22 micron and then stored at −80° C. […] A centrifugal filtration unit, NanoSep 100 (Pall Corporation, Ann Arbor, Mich.) were applied to collect the molecular weights lower than 100 kD. The 0.4 ml of the flow through fraction from NanoSep 100 was applied to Nanosep30 and the remaining protein on the filter membrane was re-suspended in 40 μl of PAB (Hank's balanced salt solution without sodium bicarbonate, 0.6 mM MgCl2, 0.6 mM CaCl2, 2 mM 1-cystein and 25 mM PIPES adjusted pH to 7.0) The protein concentration was determined using Bradford reagent (Bio-Rad, Hercules, Calif.). The aliqouts of protein solution was flash frozen by liquid nitrogen and stored in −80° C. prior to use.

| Molecule | inhibition of cathepsin B activity (words) [1] | inhibition of cathepsin B activity (words) ([1]; listed as CA 074) | inhibition of pericellular cathepsin B activity [2] | inhibition of pericellular cathepsin B activity ([2]; listed as AHSG purchased from Sigma) | amount of protein required for complete inhibition, relative to the concentration of AHSG in the blood of adults (0.3 to 0.6 mg/ml) ([2]; one of the lots) |
| --- | --- | --- | --- | --- | --- |
| CCCNC(=O)[C@H]1O[C@@H]1C(=O)N[C@H](C(=O)N1CCC[C@H]1C(=O)O)[C@@H](C)CC [CA-074] | inhibited cathepsin B activity | expected inhibition of cathepsin B activity | inhibited activity of cathepsin B | – | – |
| B1 | – | – | inhibited completely the activity of cathepsin B | significant inhibition of pericellular cathepsin B activity | less than 10% |
